Data taken from PubChem BioAssay AID1329 (NMMLSC, 2008).
Calls of active or inactive are those of the source. No rule for the calls is given here.

target: Induced myeloid leukemia cell differentiation protein Mcl-1 (Homo sapiens) (UniProt Q07820); assay: Mcl-1/Bim interaction regulators – biochemical, bead-based flow cytometry, multiplexed, human, dose response (AID 1329); settings: Bim peptide-Mcl-1 binding, MCF
Sequence (Q07820 whole entry, looked up): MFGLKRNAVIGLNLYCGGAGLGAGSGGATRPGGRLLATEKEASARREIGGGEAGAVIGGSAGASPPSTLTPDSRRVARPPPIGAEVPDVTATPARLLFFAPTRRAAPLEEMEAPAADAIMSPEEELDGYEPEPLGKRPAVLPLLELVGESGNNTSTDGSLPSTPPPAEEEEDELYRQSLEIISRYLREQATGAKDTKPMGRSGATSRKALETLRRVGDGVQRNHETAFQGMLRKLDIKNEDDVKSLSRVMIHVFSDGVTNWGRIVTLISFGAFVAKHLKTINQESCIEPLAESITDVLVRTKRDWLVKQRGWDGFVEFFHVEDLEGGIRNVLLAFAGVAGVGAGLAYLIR

Q: For `Cc1cc(N2CCN(C)CC2)nc2ccc(NC(=S)N3CCCCC3)cc12`, which percent span is on record?
A: inactive

Q: Which percent span does the source give for `COc1ccc(NC(=O)COc2ncnc3ccccc23)cc1S(=O)(=O)N1CCOCC1` here?
A: inactive

Q: `NC(=O)c1c(NC(=O)C2CCCO2)sc2c1CCCC2` (stereo not given) was tested. Which percent span did it give?
A: inactive

Q: With `CCCCC(=O)Nc1ccc(C(=O)N2CCC(C(=O)OCC)CC2)cc1` as the compound, how does the percent span read?
A: inactive

Q: Which percent span does the source give for `O=C(c1cnccn1)N1CCN(c2ccccc2F)CC1` here?
A: inactive

Q: With `CSc1n[nH]c2nc3c(c(=O)n12)C1(CCCC1)Cc1ccccc1-3` as the compound, how does the percent span read?
A: inactive

Q: For `Cn1cc(CN2C[C@]3(C)C[C@H]2CC(C)(C)C3)c(-c2ccc3c(c2)OCCO3)n1`, which percent span is on record?
A: inactive

Q: Which percent span does the source give for `O=C(Nc1n[nH]c(C(F)(F)F)n1)C1CC1` here?
A: inactive

Q: How did the percent span turn out when `Cc1cc(-c2csc(N)n2)c(C)n1C` was run?
A: inactive

Q: `Cc1c(N2C(=O)c3ccc4c5c(ccc(c35)C2=O)CC4)c(=O)n(-c2ccccc2)n1C` was tested. Which percent span did it give?
A: inactive

Q: With `Cc1nonc1NC(=O)CSc1nnc(-c2ccoc2C)n1C` as the compound, how does the percent span read?
A: inactive

Q: With `CCC(=O)N(CC)C1=C(O)c2ccccc2C(=O)C1=O` as the compound, how does the percent span read?
A: inactive

Q: For `CN(C)[C@@H]1C(=O)C(C(=O)NCN2CCCC2)=C(O)[C@@]2(O)C(=O)C3=C(O)c4c(O)cccc4[C@@](C)(O)C3CC12` (stereo not given in full), which percent span is on record?
A: inactive

Q: With `COc1cc(N2CCOCC2)ccc1C=C1C(=O)NC(=O)NC1=O` as the compound, how does the percent span read?
A: inactive

Q: With `Cc1[nH]nc(SCC(=O)NCc2ccc(F)cc2)c1[N+](=O)[O-]` as the compound, how does the percent span read?
A: inactive

Q: `CCCCc1ccc(NC(=S)NCc2ccc(OC)cc2)cc1` was tested. Which percent span did it give?
A: inactive

Q: `COc1ccc(C(=O)NC(=S)N2CCNC(=O)C2)cc1Br` was tested. Which percent span did it give?
A: inactive

Q: `Clc1ccc2c(N/N=C/c3ccc(Br)cc3)ccnc2c1` was tested. Which percent span did it give?
A: inactive

Q: With `CCN1C(=O)/C(=C\C=C2/C=CC=CN2CC)SC1=S` as the compound, how does the percent span read?
A: inactive

Q: `CC1=CC(=O)c2c(O)ccc(O)c2C1=O` was tested. Which percent span did it give?
A: inactive

Q: How did the percent span turn out when `CCOc1cc(/C=N/NC(N)=O)ccc1OCC(=O)Nc1ccc(C)c(C)c1` was run?
A: inactive

Q: `CNC(=O)CC1C(=O)N(Cc2ccccc2)C(=S)N1NC(=O)c1cccc(F)c1` (stereo not given) was tested. Which percent span did it give?
A: inactive

Q: `CC(=O)Nc1ccc(NC2=C(Cl)C(=O)c3ccccc3C2=O)cc1` was tested. Which percent span did it give?
A: inactive

Q: With `Cc1ccc(C)c(NC(=O)C(=O)NCc2ccccn2)c1` as the compound, how does the percent span read?
A: inactive

Q: For `CCOC(=O)c1c2c3c(cccc3[nH]c1=O)C(=O)c1ccccc1-2`, which percent span is on record?
A: inactive

Q: How did the percent span turn out when `O=C(O)c1cccc(NC2=C(Cl)C(=O)c3ccccc3C2=O)c1` was run?
A: inactive

Q: Which percent span does the source give for `COc1cc(N=c2ssnc2Cl)cc(OC)c1OC` here?
A: inactive

Q: How did the percent span turn out when `COc1ccc(OC)c(NC(=O)COC(=O)c2cc3c(s2)CCC3)c1` was run?
A: inactive

Q: For `CC(=O)c1ccc2c(c1)C1C=CCC1C(c1ccncc1)N2` (stereo not given), which percent span is on record?
A: inactive

Q: `Cc1csc(SCCn2c(N3CCN(c4ccccc4)CC3)nc3c2c(=O)[nH]c(=O)n3C)n1` was tested. Which percent span did it give?
A: inactive

Q: For `C=CCn1c(C)c(C(C)=O)c(N2CCOCC2)nc1=S`, which percent span is on record?
A: inactive

Q: With `Cc1ccccc1-n1nc(SCC(=O)O)sc1=S` as the compound, how does the percent span read?
A: inactive

Q: `O=C1c2ccccc2C(=O)c2cc(S(=O)(=O)Nc3ccccc3)ccc21` was tested. Which percent span did it give?
A: inactive

Q: With `Cc1ccc(-c2cc(C(=O)N3CCN(c4ncccn4)CC3)c3cc(Br)ccc3n2)o1` as the compound, how does the percent span read?
A: inactive

Q: With `COc1cc(NC(=O)c2ccc3c(c2)OCO3)ccc1NC(=O)c1ccco1` as the compound, how does the percent span read?
A: inactive

Q: Which percent span does the source give for `Cc1ccc(N=Cc2c(O)n(-c3ccc4c(c3)OCO4)c(=O)c3ccccc23)cc1` here?
A: inactive

Q: For `CCOc1cc(S(=O)(=O)Nc2ccccn2)ccc1F`, which percent span is on record?
A: inactive

Q: With `S=C(Nc1ccc(N2CCOCC2)cc1)Nc1ccc2nc(-c3ccco3)c(-c3ccco3)nc2c1` as the compound, how does the percent span read?
A: inactive

Q: How did the percent span turn out when `O=C(CSc1ccc2nnc(-c3ccncc3)n2n1)Nc1nccs1` was run?
A: inactive

Q: Which percent span does the source give for `COc1ccc(NC(=O)c2sccc2SCc2cccc(C(F)(F)F)c2)cc1` here?
A: inactive

Q: `O=C(C[n+]1ccc(-c2nnc3n2CCC3)cc1)c1ccc(Cl)c(Cl)c1` was tested. Which percent span did it give?
A: inactive

Q: `CC1Nc2ccccc2C(=O)N1NS(=O)(=O)c1ccccc1` (stereo not given) was tested. Which percent span did it give?
A: inactive

Q: `CCNC(=S)Nc1cc(OCC)c(NC(=O)c2cccs2)cc1OCC` was tested. Which percent span did it give?
A: inactive

Q: With `COc1cccc(/C=N/Nc2nn3cnnc3c3ccccc23)c1O` as the compound, how does the percent span read?
A: inactive

Q: For `Cc1ccc(C(=O)N(CCCN(C)C)c2nc3ccc(Cl)cc3s2)cc1C`, which percent span is on record?
A: inactive

Q: With `O=C(CNC(=O)c1ccc(S(=O)(=O)N2CCCC2)cc1)N/N=C/c1ccc(Cl)cc1Cl` as the compound, how does the percent span read?
A: inactive

Q: Which percent span does the source give for `O=S1(=O)N=C(N(CCO)/N=C/c2ccccc2)c2ccccc21` here?
A: inactive

Q: `Cc1cc(C)c(C)c(S(=O)(=O)N2CCN(CC(=O)NC(=O)NCc3ccccc3)CC2)c1C` was tested. Which percent span did it give?
A: inactive

Q: With `COP(=O)(CC(=O)O)c1ccccc1` (stereo not given) as the compound, how does the percent span read?
A: inactive

Q: With `Cc1ccccc1-c1nc(-c2ccc(NC(=O)c3ccc4c(c3)OCO4)cc2)no1` as the compound, how does the percent span read?
A: inactive

Q: `COc1ccc(-c2noc(COc3ccc4c(c3)OCO4)n2)cc1OC` was tested. Which percent span did it give?
A: inactive

Q: Which percent span does the source give for `CN=c1scc(C)n1/N=C/c1ccc(O)c(O)c1O` here?
A: inactive

Q: With `Nc1ccc(N2CCN(CCCCN3C(=O)C4CCCN4C3=O)CC2)cc1` (stereo not given) as the compound, how does the percent span read?
A: inactive

Q: Which percent span does the source give for `O=C(NC1=C(NC2CCS(=O)(=O)C2)C(=O)c2ccccc2C1=O)c1ccccc1` (stereo not given) here?
A: inactive

Q: For `CCOc1cc(NC(=S)NC)c(OCC)cc1NC(=O)c1ccc(OC)cc1`, which percent span is on record?
A: inactive

Q: How did the percent span turn out when `CCn1c(SCC(=O)Nc2ccccc2-c2ccccc2)nnc1-c1ccoc1C` was run?
A: inactive

Q: Which percent span does the source give for `O=C(CNC(=O)c1ccco1)NCC(=O)OCc1ccccc1Br` here?
A: inactive

Q: Which percent span does the source give for `CCC(CC)C(=O)Nc1cccc(S(=O)(=O)c2cccc(NC(=O)C(CC)CC)c2)c1` here?
A: inactive

Q: `Cc1ccc(C(=O)C(C(=O)/C=C/c2ccccc2)=C2SCCCS2)cc1` was tested. Which percent span did it give?
A: inactive

Q: `COc1ccccc1Oc1ccc2c(c1)C(=O)N(c1ccccc1)C2=O` was tested. Which percent span did it give?
A: inactive

Q: For `COc1ccc(S(=O)(=O)NCCSc2ccc(Cl)cc2)cc1OC`, which percent span is on record?
A: inactive

Q: How did the percent span turn out when `Cc1cccc(-c2nnc3n2N=C(c2ccccc2)CS3)c1` was run?
A: inactive

Q: With `COc1cccc(/C=N/Nc2nn3cnnc3c3ccccc23)c1` as the compound, how does the percent span read?
A: inactive

Q: For `CCOC(=O)c1ccc(NC(=O)CSCCC(=O)O)cc1`, which percent span is on record?
A: inactive

Q: How did the percent span turn out when `Cc1ccc(N=C2NC(=O)/C(=C/C=C/c3ccco3)S2)cc1` was run?
A: inactive

Q: `Brc1ccc2ncnc(Nc3ccc(N4CCOCC4)cc3)c2c1` was tested. Which percent span did it give?
A: inactive

Q: Which percent span does the source give for `O=C(Nc1cccc(-c2ccc3nncn3n2)c1)c1ccco1` here?
A: inactive

Q: How did the percent span turn out when `CNC(=S)N/N=C/C1=CCC2CC1C2(C)C` (stereo not given) was run?
A: inactive

Q: Which percent span does the source give for `Cc1c(NC2=C(Cl)C(=O)N(c3ccccc3Cl)C2=O)c(=O)n(-c2ccccc2)n1C` here?
A: inactive

Q: With `CC(C)c1ccc(/C=N/NC(=O)c2ccccc2Cl)cc1` as the compound, how does the percent span read?
A: inactive

Q: Which percent span does the source give for `CCN(CC)c1ccc(Nc2nc(N3CCOCC3)c3ccccc3n2)cc1` here?
A: inactive

Q: With `O=C1C=C(Nc2ccccc2)C(=O)c2ccccc21` as the compound, how does the percent span read?
A: inactive

Q: For `CCOc1ccc2nc(SCC(=O)N3c4ccccc4Sc4ccccc43)c(C#N)cc2c1`, which percent span is on record?
A: inactive

Q: Which percent span does the source give for `Cc1cc(N2CCN(C)CC2)nc2ccc(NC(=S)N3CCC4(CC3)OCCO4)cc12` here?
A: inactive

Q: For `Cc1cc(NC(=O)CCCC(=O)NCc2ccccc2)no1`, which percent span is on record?
A: inactive

Q: With `O=C(NC1=NCCS1)NC12CC3CC(CC(C3)C1)C2` as the compound, how does the percent span read?
A: inactive

Q: Which percent span does the source give for `O=C(Nc1ccc2nc(-c3ccco3)c(-c3ccco3)nc2c1)N1CCCCCC1` here?
A: inactive

Q: Which percent span does the source give for `Cc1ccc(-c2nc3c(c(=O)[nH]c(=O)n3Cc3ccccc3)n2C)o1` here?
A: inactive

Q: Which percent span does the source give for `Cn1c(=O)c2c(nc(NCCO)n2CCc2ccccc2)n(C)c1=O` here?
A: inactive

Q: Which percent span does the source give for `FC(F)(F)c1ccc2c(c1)C1C=CCC1C(c1ccncc1)N2` (stereo not given) here?
A: inactive

Q: For `Cc1c(NC2=C(Cl)C(=O)N(c3ccccc3)C2=O)c(=O)n(-c2ccccc2)n1C`, which percent span is on record?
A: inactive

Q: With `COc1ccc(NC(=O)c2cccs2)cc1` as the compound, how does the percent span read?
A: inactive

Q: For `O=C(COC(=O)c1ccccn1)NC1CCCCC1`, which percent span is on record?
A: inactive

Q: Which percent span does the source give for `Cc1ccc(C)c(Oc2ncnc(N)c2[N+](=O)[O-])c1` here?
A: inactive

Q: How did the percent span turn out when `COc1ccc2nc(NC(=O)c3ccc(-c4cccc([N+](=O)[O-])c4)o3)sc2c1` was run?
A: inactive

Q: `O=C(Nc1nnc(COc2ccc(Cl)cc2)s1)c1ccco1` was tested. Which percent span did it give?
A: inactive

Q: For `Cc1ccc2c(C)c(C(=O)Nc3nnc(C)s3)oc2c1`, which percent span is on record?
A: inactive

Q: `Cc1ccccc1OCC(=O)N/N=C/c1ccccn1` was tested. Which percent span did it give?
A: inactive

Q: Which percent span does the source give for `CCOc1ccc(C(=O)Nc2nnn(CC)n2)cc1` here?
A: inactive

Q: Which percent span does the source give for `COc1ccccc1-n1c(-c2ccccc2)c[nH]c1=S` here?
A: inactive

Q: For `Cc1ccccc1-n1c(SCc2cccc(F)c2)nc2[nH]ncc2c1=O`, which percent span is on record?
A: inactive

Q: `CCOc1ncccc1C(=O)OC(C)C(=O)Nc1ccc(CC)cc1` (stereo not given) was tested. Which percent span did it give?
A: inactive

Q: For `O=C(/C=C/c1ccc(-c2ccccc2[N+](=O)[O-])o1)c1ccccc1`, which percent span is on record?
A: inactive

Q: With `COc1ccc(N2CC(C(=O)Nc3nnc(SCC(=O)c4ccccc4)s3)CC2=O)cc1` (stereo not given) as the compound, how does the percent span read?
A: inactive

Q: How did the percent span turn out when `COc1ccccc1Oc1ccc2c(c1)C(=O)N(c1cccc3ncccc13)C2=O` was run?
A: inactive

Q: How did the percent span turn out when `Cc1ccc(C)c(N2CCN(C(=S)Nc3ccc4nc(N5CCN(C)CC5)cc(C)c4c3)CC2)c1` was run?
A: inactive

Q: Which percent span does the source give for `CCOC(=O)c1snc(-c2ccc(F)cc2)c1N` here?
A: inactive

Q: `O=C1c2ccccc2-c2onc3ccc(NCc4ccco4)c1c23` was tested. Which percent span did it give?
A: inactive

Q: Which percent span does the source give for `CNc1ccc(Br)cc(C(=O)/C=C/c2cccc(OC)c2)c1=O` here?
A: inactive

Q: With `O=C(Oc1ccc(-c2cnc3ccccc3n2)cc1)c1cccc([N+](=O)[O-])c1` as the compound, how does the percent span read?
A: inactive

Q: For `COc1ccc(CC(=O)Nc2ccc(-c3nc4cc(C)ccc4o3)c(O)c2)cc1OC`, which percent span is on record?
A: inactive

Q: `NC(=O)c1c(NC(=O)C2CCCO2)sc2c1CCCCC2` (stereo not given) was tested. Which percent span did it give?
A: inactive

Q: `O=C(COc1ccccc1Br)NCc1ccccn1` was tested. Which percent span did it give?
A: inactive

Q: For `COc1ccc(/C=C/C(=O)Nc2sc(Cc3ccccc3)c(C)c2C(N)=O)cc1`, which percent span is on record?
A: inactive

Q: How did the percent span turn out when `CCOc1cccc(CNc2ccc(O)cc2)c1OCc1ccc(Cl)cc1` was run?
A: inactive
